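How tested: cells in 96-well plates exposed to compound for 48 hours at five concentrations. GI50 is the concentration that inhibits growth by half.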 Activity calls are given as the source filed them. Cut-off read from the data, not from the text of the source: active = GI50 up to about 1.1 µM and inactive = higher.
Columns and labels:
Assay in all cases: inhibition of tumour cell growth, NCI panel, 48 h
COLO 205 = system: COLO 205
EKVX = system: EKVX
HOP-62 = system: HOP-62
U-251 = system: U-251
MCF7 = system: MCF7
ACHN = system: ACHN
HCT-15 = system: HCT-15
NCI-H460 = system: NCI-H460
SK-MEL-2 = system: SK-MEL-2
NCI/ADR-RES = system: NCI/ADR-RES
K562 = system: K562
UO-31 = system: UO-31
DU-145 = system: DU-145
MOLT-4 = system: MOLT-4
NCI-H522 = system: NCI-H522
SN12C = system: SN12C
SF-268 = system: SF-268
MDA-N = system: MDA-N
Malme-3M = system: Malme-3M

Structure (SMILES) | GI50 (COLO 205) | GI50 (EKVX) | GI50 (HOP-62) | GI50 (U-251) | GI50 (MCF7) | GI50 (ACHN) | GI50 (HCT-15) [µM] | GI50 (NCI-H460) | GI50 (SK-MEL-2) | GI50 (NCI/ADR-RES) | GI50 (K562) | GI50 (UO-31) | GI50 (DU-145) | GI50 (MOLT-4) | GI50 (NCI-H522) | GI50 (SN12C) | GI50 (SF-268) | GI50 (MDA-N) | GI50 (Malme-3M)
CC(C)(C)c1cc2c(O)c(c1)COCc1cc(C(C)(C)C)cc(c1O)COCc1cc(C(C)(C)C)cc(c1O)COC2 | > 100 µM (inactive) | > 100 µM (inactive) | > 100 µM (inactive) | > 100 µM (inactive) | > 100 µM (inactive) | 63.2 µM (inactive) | > 100 | > 100 µM (inactive) | > 100 µM (inactive) | > 100 µM (inactive) | > 100 µM (inactive) | 35.5 µM (inactive) | 32.5 µM (inactive) | 48 µM (inactive) |  |  |  |  | 
Cn1/c(=N\c2ccccc2[N+](=O)[O-])sc2ccccc21 | > 100 µM (inactive) | 8.61 µM (inactive) | 20.6 µM (inactive) | 36.6 µM (inactive) |  | 61.5 µM (inactive) | 2.61 | 50.2 µM (inactive) | 33.7 µM (inactive) | 95.9 µM (inactive) | > 100 µM (inactive) | > 100 µM (inactive) | > 100 µM (inactive) | > 100 µM (inactive) | 9.29 µM (inactive) | 84.1 µM (inactive) | 70.5 µM (inactive) | > 100 µM (inactive) | > 100 µM (inactive)
COc1ccc(NC(=O)/C(O)=C/C(=O)c2ccccc2)cc1 | > 10 µM (inactive) | > 10 µM (inactive) | > 10 µM (inactive) |  | > 10 µM (inactive) |  | > 10 |  |  |  | > 10 µM (inactive) |  | > 10 µM (inactive) | 1.95 µM (inactive) |  | > 10 µM (inactive) | > 10 µM (inactive) | > 10 µM (inactive) | > 10 µM (inactive)
CC1CCCc2c(CC3CC(=O)NC(=O)C3)nc(N)nc21 (stereo not given) | > 100 µM (inactive) | > 100 µM (inactive) | > 100 µM (inactive) | > 100 µM (inactive) | > 100 µM (inactive) |  | > 100 |  | > 100 µM (inactive) | > 100 µM (inactive) | > 100 µM (inactive) |  | > 100 µM (inactive) | > 100 µM (inactive) |  | > 100 µM (inactive) | > 100 µM (inactive) | > 100 µM (inactive) | > 100 µM (inactive)
N#CC1=C(N)Nc2nc3ccccc3n2C1c1ccccc1 (stereo not given) | > 100 µM (inactive) | 9.2 µM (inactive) | 88.1 µM (inactive) | 42.9 µM (inactive) | 97.7 µM (inactive) | 23.3 µM (inactive) | 44.7 | 45.7 µM (inactive) | 77.8 µM (inactive) | > 100 µM (inactive) | 59.7 µM (inactive) | 64.3 µM (inactive) | 35.3 µM (inactive) | 49 µM (inactive) |  | > 100 µM (inactive) | 46.7 µM (inactive) |  | 
O=C(O)C(F)(OC(F)(F)C(F)(F)C(F)(F)F)C(F)(F)F (stereo not given) | > 100 µM (inactive) | > 100 µM (inactive) | > 100 µM (inactive) | > 100 µM (inactive) | > 100 µM (inactive) | > 100 µM (inactive) | > 100 | > 100 µM (inactive) | > 100 µM (inactive) | > 100 µM (inactive) | > 100 µM (inactive) | > 100 µM (inactive) | > 100 µM (inactive) | > 100 µM (inactive) | > 100 µM (inactive) | > 100 µM (inactive) | > 100 µM (inactive) |  | > 100 µM (inactive)
CCCCCCCCCCCCOP(=O)(O)OP(=O)(O)OCC1OC(n2ccc(N)nc2=O)CC1O (stereo not given) | > 100 µM (inactive) | > 100 µM (inactive) | > 100 µM (inactive) | > 100 µM (inactive) | > 100 µM (inactive) | > 100 µM (inactive) | > 100 | > 100 µM (inactive) | > 100 µM (inactive) | > 100 µM (inactive) | > 100 µM (inactive) | > 100 µM (inactive) |  | > 100 µM (inactive) | > 100 µM (inactive) | > 100 µM (inactive) | > 100 µM (inactive) | > 100 µM (inactive) | > 100 µM (inactive)
COc1cc(O)c2c(c1)C(=O)c1cc3c(c(O)c1C2=O)C(OC1OC(C)C(OC)C(O)C1OC)C(OC)C(C)(O)C3=O (stereo not given) | 3.09 µM (inactive) | 3.37 µM (inactive) | 5.46 µM (inactive) | 5.33 µM (inactive) | 5.58 µM (inactive) | 2.14 µM (inactive) | 3.15 | 2.72 µM (inactive) | 8.11 µM (inactive) |  | 3.58 µM (inactive) |  |  | 3.14 µM (inactive) | 1.68 µM (inactive) |  | 5.55 µM (inactive) |  | 2.39 µM (inactive)
CC(C)C[C@H](NC(=O)[C@@H](N)Cc1cccc2ccccc12)B(O)O | 0.0417 µM (active) |  | 0.0575 µM (active) | 0.0416 µM (active) | < 0.0232 µM (active) | 0.189 µM (active) | 0.033 | 0.0695 µM (active) | 0.0399 µM (active) |  |  | 0.0331 µM (active) | 0.44 µM (active) | < 0.0177 µM (active) | 0.187 µM (active) | 0.0426 µM (active) |  | 0.182 µM (active) | 0.0224 µM (active)

From ChEMBL document CHEMBL1201862, “PubChem BioAssay data set” (2004)
